Reference: ChEMBL document CHEMBL5518209, “Caltrop-like Small-Molecule Antidotes That Neutralize Unfractionated Heparin and Low-Molecular-Weight Heparin In Vivo” (J Med Chem, 2024)
Activity calls are given as the source filed them. No cut-off for these calls is given here.

How the values were obtained:
Rattus norvegicus [1] = assay: In vivo antagonism of enoxaparin sodium induced anticoagulation in Sprague-Dawley rat assessed as clotting rate at 0.4 mg/kg, iv administered via tail vein pretreated with enoxaparin sodium for 5 mins followed by compound addition and measured after 2.5 mins by thromboelastography; assay type: functional
[2] = Binding affinity to unfractionated heparin in saline at pH 7.4 assessed as change in gibbs free energy by ITC analysis
Homo sapiens [3] = species: Homo sapiens; assay: Reversal of anticoagulation of enoxaparin sodium in human whole blood assessed as minimum effective dose incubated for 5 mins by thromboelastography; assay type: tissue-based
[4] = Binding affinity to unfractionated heparin in saline at pH 7.4 assessed as increase in fluorescence by measuring inflection point by fluorescence titration method
Homo sapiens [5] = species: Homo sapiens; assay: Reversal of anticoagulation of dalteparin sodium in human whole blood assessed as restoration of normal clotting time at 5 to 20 ug/ml incubated for 5 mins by thromboelastography; assay type: tissue-based; settings: dose 5-20 µg/ml
Rattus norvegicus [6] = assay: (§1) In vivo antagonism of enoxaparin sodium induced anticoagulation in Sprague-Dawley rat assessed as restoration of normal clotting strength at 1 mg/kg, iv administered via tail vein pretreated with enoxaparin sodium for 5 mins followed by compound addition and measured after 2.5 mins by thromboelastography; assay type: functional, organism-based
[7] = Toxicity in Sprague-Dawley rat assessed as abnormal index of microalbumin at 25 mg/kg, iv measured after 5 hrs; assay type: organism-based; settings: in vivo
[8] = Toxicity in ICR mouse assessed as histopathological changes in liver at 25 mg/kg, iv administered as single dose through tail vein and measured after 14 days by H and E staining based analysis; assay type: organism-based; settings: in vivo, 336 h, time 14 day
Rattus norvegicus [9] = assay: as §1, with “time” for “strength”; assay type: functional, organism-based
Homo sapiens [10] = species: Homo sapiens; assay: Reversal of anticoagulation of unfractionated heparin in human whole blood assessed as restoration of normal clotting time at 5 to 20 ug/ml incubated for 5 mins by thromboelastography; assay type: tissue-based; settings: dose 5-20 µg/ml
Mus musculus [11] = assay: In vivo antagonism of unfractionated heparin induced anticoagulation in ICR mouse assessed as blood loss at 0.4 mg/kg, iv administered via tail vein pretreated with heparin for 5 mins followed by compound addition and measured after 5 mins (reference value: 324.4 +/- 139.5 microL); assay type: functional
Erythrocyte [12] = assay: Hemolytic activity in Sprague-Dawley rat red blood cells at 512 ug/ml; assay type: toxicity, cell-based; settings: dose 512 µg/ml
[13] = Binding affinity to nadroparin calcium in saline at pH 7.4 assessed as change in entropy by ITC analysis
[14] = Binding affinity to enoxaparin sodium in saline at pH 7.4 assessed as binding constant by ITC analysis
[15] = Binding affinity to dalteparin sodium in saline at pH 7.4 assessed as change in gibbs free energy by ITC analysis
[16] = Binding affinity to dalteparin sodium in saline at pH 7.4 assessed as binding constant by ITC analysis
Homo sapiens [17] = species: Homo sapiens; assay: Neutralization of dalteparin sodium in human poor platelet plasma at 10 to 50 ug/ml by aPTT assay relative to control; assay type: cell-free; settings: dose 10-50 µg/ml
[18] = Binding affinity to unfractionated heparin in saline at pH 7.4 assessed as binding constant by ITC analysis
Homo sapiens [19] = species: Homo sapiens; assay: Reversal of anticoagulation of enoxaparin sodium in human whole blood assessed as restoration of normal coagulation rate at 5 to 20 ug/ml incubated for 5 mins by thromboelastography; assay type: tissue-based; settings: dose 5-20 µg/ml
[20] = Effect on bleeding time in ICR mouse at 0.4 mg/kg, iv treated for 5 mins; assay type: toxicity, organism-based; settings: in vivo
Homo sapiens [21] = species: Homo sapiens; assay: Neutralization of nadroparin calcium in human poor platelet plasma at 10 to 50 ug/ml by aPTT assay relative to control; assay type: cell-free; settings: dose 10-50 µg/ml
[22] = Cytotoxicity against rat H9c2 cells assessed as cell viability at 300 ug/ml incubated for 24 hrs by CCK-8 assay relative to control; assay type: toxicity, cell-based; settings: at 300 µg/mL, read-out: Activity
Homo sapiens [23] = species: Homo sapiens; assay: Neutralization of enoxaparin sodium in human poor platelet plasma at 10 to 50 ug/ml by aPTT assay relative to control; assay type: cell-free; settings: dose 10-50 µg/ml
Mus musculus [24] = assay: In vivo antagonism of unfractionated heparin induced anticoagulation in ICR mouse assessed as bleeding time at 0.4 mg/kg, iv administered via tail vein pretreated with heparin for 5 mins followed by compound addition and measured after 5 mins (reference value: 96.5 +/- 20.6 min); assay type: functional
[25] = Binding affinity to enoxaparin sodium in saline at pH 7.4 assessed as change in entropy by ITC analysis
[26] = Binding affinity to unfractionated heparin in saline at pH 7.4 assessed as change in entropy by ITC analysis
[27] = Toxicity in ICR mouse assessed as histopathological changes in spleen at 25 mg/kg, iv administered as single dose through tail vein and measured after 14 days by H and E staining based analysis; assay type: organism-based; settings: in vivo, 336 h, time 14 day
Erythrocyte [28] = assay: Hemolytic activity in human red blood cells at 512 ug/ml; assay type: toxicity, cell-based; settings: dose 512 µg/ml
[29] = Toxicity in ICR mouse assessed as histopathological changes in kidneys at 25 mg/kg, iv administered as single dose through tail vein and measured after 14 days by H and E staining based analysis; assay type: organism-based, Kidney; settings: in vivo, 336 h, time 14 day
[30] = Acute toxicity in iv dosed ICR mouse assessed as maximum tolerated dose measured after 7 days; assay type: organism-based; settings: in vivo, time 7 day
[31] = Binding affinity to nadroparin calcium in saline at pH 7.4 assessed as change in gibbs free energy by ITC analysis
[32] = Toxicity in ICR mouse assessed as effect on animal activity at 25 mg/kg, iv administered as single dose through tail vein and measured on day 2; assay type: organism-based; settings: in vivo, 48 h, time 2 day
[33] = Binding affinity to dalteparin sodium in saline at pH 7.4 assessed as change in enthalpy by ITC analysis
Homo sapiens [34] = species: Homo sapiens; assay: Reversal of anticoagulation of nadroparin calcium in human whole blood assessed as restoration of normal clotting time at 5 to 20 ug/ml incubated for 5 mins by thromboelastography; assay type: tissue-based; settings: dose 5-20 µg/ml
Homo sapiens [35] = species: Homo sapiens; assay: Reversal of anticoagulation of dalteparin sodium in human whole blood assessed as restoration of normal coagulation rate at 5 to 20 ug/ml incubated for 5 mins by thromboelastography; assay type: tissue-based; settings: dose 5-20 µg/ml
Rattus norvegicus [36] = assay: In vivo antagonism of enoxaparin sodium induced anticoagulation in Sprague-Dawley rat assessed as clotting strength at 0.4 mg/kg, iv administered via tail vein pretreated with enoxaparin sodium for 5 mins followed by compound addition and measured after 2.5 mins by thromboelastography; assay type: functional
[37] = Binding affinity to nadroparin calcium in saline at pH 7.4 assessed as binding constant by ITC analysis
Blood = assay: Ex vivo neutralization of unfractionated heparin in Sprague-Dawley rat whole blood assessed as restoration of blood coagulation at 10 to 15 ug/ml incubated for 15 mins; assay type: functional, tissue-based; settings: dose 10-15 µg/ml
[38] = Toxicity in ICR mouse assessed as effect on animal activity at 0.4 to 25 mg/kg, iv administered as single dose through tail vein and measured after 3 to 14 days; assay type: organism-based; settings: in vivo, dose lower 0.4 mg/kg, time lower 3 day, dose upper 25 mg/kg, time upper 14 day
[39] = Toxicity in iv dosed ICR mouse assessed as maximum tolerated dose administered through tail vein; assay type: organism-based; settings: in vivo

Question: With NCCOc1ccc(-c2cc[n+](Cc3ccc(C(c4ccc(C[n+]5ccc(-c6ccc(OCCN)c(OCCN)c6)cc5)cc4)(c4ccc(C[n+]5ccc(-c6ccc(OCCN)c(OCCN)c6)cc5)cc4)c4ccc(C[n+]5ccc(-c6ccc(OCCN)c(OCCN)c6)cc5)cc4)cc3)cc2)cc1OCCN.[Cl-].[Cl-].[Cl-].[Cl-] as the compound, how does the Activity (Rattus norvegicus [1]) read?
Answer: 1.95 min

Question: What about the deltaG [2] of the same compound?
Answer: -42.7 kJ/mol

Question: What about the MED (Homo sapiens [3]) of the same compound?
Answer: 4 µg/mL

Question: And the IP [4]?
Answer: 2.4

Question: And the Activity (Homo sapiens [5])?
Answer: Active

Question: And the Activity (Rattus norvegicus [6])?
Answer: Active

Question: What about the Activity [7] of the same compound?
Answer: Toxic

Question: What about the Activity [8] of the same compound?
Answer: Non-Toxic

Question: What about the Activity (Rattus norvegicus [9]) of the same compound?
Answer: Active

Question: And the Activity (Homo sapiens [10])?
Answer: Active

Question: What about the Activity (Mus musculus [11]) of the same compound?
Answer: 26.1 µL

Question: And the Activity (Erythrocyte [12])?
Answer: Non-Toxic

Question: And the -TdeltaS [13]?
Answer: -14.2 kJ/mol

Question: And the Ka [14]?
Answer: 1.79e+07 M⁻¹

Question: What about the deltaG [15] of the same compound?
Answer: -43.9 kJ/mol

Question: And the Ka [16]?
Answer: 4.78e+07 M⁻¹

Question: What about the Activity (Homo sapiens [17]) of the same compound?
Answer: 99%

Question: What about the Ka [18] of the same compound?
Answer: 2.92e+07 M⁻¹

Question: And the Activity (Homo sapiens [19])?
Answer: Active

Question: And the Activity [20]?
Answer: Non-Toxic

Question: What about the Activity (Homo sapiens [21]) of the same compound?
Answer: 99%

Question: And the viability at 24 h, 300 ug/ml [22]?
Answer: > 80%

Question: What about the Activity (Homo sapiens [23]) of the same compound?
Answer: 97%

Question: And the Time (Mus musculus [24])?
Answer: 22.7 min

Question: What about the -TdeltaS [25] of the same compound?
Answer: -8.58 kJ/mol

Question: What about the -TdeltaS [26] of the same compound?
Answer: -18.1 kJ/mol

Question: And the Activity [27]?
Answer: Non-Toxic

Question: And the Activity (Erythrocyte [28])?
Answer: Non-Toxic

Question: And the Activity [29]?
Answer: Non-Toxic

Question: And the MTD at 168 h [30]?
Answer: 25 mg/kg

Question: What about the deltaG [31] of the same compound?
Answer: -41.5 kJ/mol

Question: What about the Activity [32] of the same compound?
Answer: Toxic

Question: And the deltaH [33]?
Answer: -21.2 kJ/mol

Question: And the Activity (Homo sapiens [34])?
Answer: Active

Question: And the Activity (Homo sapiens [35])?
Answer: Active

Question: And the Activity (Rattus norvegicus [36])?
Answer: 67 mm

Question: What about the Ka [37] of the same compound?
Answer: 1.87e+07 M⁻¹

Question: And the Activity (Blood)?
Answer: Active

Question: What about the Activity [38] of the same compound?
Answer: Non-Toxic

Question: What about the MTD [39] of the same compound?
Answer: 25 mg/kg
